We go through three compounds from patent US20260324639A1, “MICROBIOCIDAL PYRAZOLE DERIVATIVES” (SYNGENTA CROP PROTECTION AG, priority 2022, published 2026).

Each structure is given as a SMILES string. Where only a bound is given, the exact number is not on record here.

The test system of one assay is Phaeosphaeria nodorum. The experiment in a line: Phaeosphaeria nodorum (Septoria nodorum)/wheat/leaf disc preventative (glume blotch). The settings on record: 200 ppm, wheat leaf segments cv. Kanzler, inoculated 2 days after application, assessed 5-7 days after application. Type of assay: in vivo. How it is done:
Wheat leaf segments cv. Kanzler are placed on agar in a multiwell plate (24-well format) and sprayed with the formulated test compound diluted in water. The leaf disks are inoculated with a spore suspension of the fungus 2 days after application. The inoculated test leaf disks are incubated at 20° C. and 75% rh under a light regime of 12 h light/12 h darkness in a climate cabinet and the activity of a compound is assessed as percent disease control compared to untreated when an appropriate level of disease damage appears in untreated check leaf disks (5-7 days after application).

The subject of a further assay is Pyrenophora teres. The experiment in a line: Pyrenophora teres/barley/leaf disc preventative (net blotch). Conditions: 200 ppm, barley leaf segments cv. Hasso, inoculated 2 days after application, assessed 5-7 days after application. In kind it is in vivo. On the procedure:
Barley leaf segments cv. Hasso are placed on agar in a multiwell plate (24-well format) and sprayed with the formulated test compound diluted in water. The leaf segments are inoculated with a spore suspension of the fungus 2 days after application. The inoculated leaf segments are incubated at 20° C. and 65% rh under a light regime of 12 h light/12 h darkness in a climate cabinet and the activity of a compound is assessed as disease control compared to untreated when an appropriate level of disease damage appears in untreated check leaf segments (5-7 days after application).

The subject of assay [1] is Blumeria graminis f. sp. tritici. Description: Blumeria graminis f. sp. tritici/wheat/leaf disc preventative (powdery mildew on wheat). The settings on record: 200 ppm, wheat leaf segments cv. Kanzler, inoculated 1 day after application, assessed 6-8 days after application. Type of assay: in vivo. On the procedure: Wheat leaf segments cv. Kanzler are placed on agar in a multiwell plate (24-well format) and sprayed with the formulated test compound diluted in water. The leaf disks are inoculated by shaking powdery mildew infected plants above the test plates 1 day after application. The inoculated leaf disks are incubated at 20° C. and 60% rh under a light regime of 24 h darkness followed by 12 h light/12 h darkness in a climate chamber and the activity of a compound is assessed as percent disease control compared to untreated when an appropriate level of disease damage appears on untreated check leaf segments (6-8 days after application).

In the next assay the test system is Glomerella lagenarium. The experiment in a line: Glomerella lagenarium (Colletotrichum lagenarium)/liquid culture (anthracnose). Type of assay: cell-based. Conditions: Colletotrichum orbiculare, liquid culture, PDB, 24° C., growth inhibition photometric 3-4 days after application, read-out: control of Glomerella lagenarium compared to untreated control. On the procedure: Conidia of the fungus from cryogenic storage are directly mixed into nutrient broth (PDB potato dextrose broth). After placing a (DMSO) solution of test compound into a microtiter plate (96-well format), the nutrient broth containing the fungal spores is added. The test plates are incubated at 24° C. and the inhibition of growth is measured photometrically 3-4 days after application.

Assay [2] relates to Puccinia recondita f. sp. tritici. The experiment in a line: Puccinia recondita f. sp. tritici/wheat/leaf disc preventative (brown rust). Type of assay: in vivo. The settings on record: 200 ppm, inoculated 1 day after application, wheat leaf segments cv. Kanzler, assessed 7-9 days after application. On the procedure: (§1) Wheat leaf segments cv. Kanzler are placed on agar in multiwell plates (24-well format) and sprayed with the formulated test compound diluted in water. The leaf disks are inoculated with a spore suspension of the fungus 1 day after application. The inoculated leaf segments are incubated at 19° C. and 75% rh under a light regime of 12 h light/12 h darkness in a climate cabinet and the activity of a compound is assessed as percent disease control compared to untreated when an appropriate level of disease damage appears in untreated check leaf segments (7-9 days after application).

Another assay relates to Alternaria solani. The experiment in a line: Alternaria solani/tomato/leaf disc (early blight). In kind it is in vivo. Conditions: 200 ppm; tomato leaf disks cv. Baby; inoculated 2 days after application; assessed 5-7 days after application. How it is done: Tomato leaf disks cv. Baby are placed on agar in multiwell plates (24-well format) and sprayed with the formulated test compound diluted in water. The leaf disks are inoculated with a spore suspension of the fungus 2 days after application. The inoculated leaf disks are incubated at 23° C./21° C. (day/night) and 80% rh under a light regime of 12/12 h (light/dark) in a climate cabinet and the activity of a compound is assessed as percent disease control compared to untreated when an appropriate level of disease damage appears on untreated check disk leaf disks (5-7 days after application).

Assay [3] relates to Mycosphaerella graminicola. Description: Mycosphaerella graminicola (Septoria tritici)/liquid culture (Septoria blotch). Conditions: Zymoseptoria tritici, liquid culture, PDB, 24° C., growth inhibition photometric 4-5 days after application, read-out: control of Mycosphaerella graminicola compared to untreated control. In kind it is cell-based. How it is done: (§2) Conidia of the fungus from cryogenic storage are directly mixed into nutrient broth (PDB potato dextrose broth). After placing a (DMSO) solution of test compound into a microtiter plate (96-well format), the nutrient broth containing the fungal spores is added. The test plates are incubated at 24° C. and the inhibition of growth is determined photometrically 4-5 days after application.

The subject of the next assay is Mycosphaerella arachidis. The experiment in a line: Mycosphaerella arachidis (Cercospora arachidicola)/liquid culture (early leaf spot). In kind it is cell-based. The settings on record: liquid culture, PDB, 24° C., growth inhibition photometric 4-5 days after application, read-out: control of Mycosphaerella arachidis compared to untreated control. How it is done: as §2

A further assay deals with Sclerotinia sclerotiorum. The experiment in a line: Sclerotinia sclerotiorum/liquid culture (cottony rot). Type of assay: cell-based. The settings on record: liquid culture (mycelia fragments), PDB, 24° C., growth inhibition photometric 3-4 days after application, read-out: control of Sclerotinia sclerotiorum compared to untreated control. How it is done:
Mycelia fragments of a newly grown liquid culture of the fungus are directly mixed into nutrient broth (PDB potato dextrose broth). After placing a (DMSO) solution of test compound into a microtiter plate (96-well format) the nutrient broth containing the fungal material is added. The test plates are incubated at 24° C. and the inhibition of growth is determined photometrically 3-4 days after application.

For another assay, the system named is Botryotinia fuckeliana. Description: Botryotinia fuckeliana (Botrytis cinerea)/liquid culture (gray mould). Type of assay: cell-based. Conditions: liquid culture, Vogels broth, 24° C., growth inhibition photometric 3-4 days after application, read-out: control of Botryotinia fuckeliana compared to untreated control. On the procedure: Conidia of the fungus from cryogenic storage are directly mixed into nutrient broth (Vogels broth). After placing a (DMSO) solution of test compound into a microtiter plate (96-well format), the nutrient broth containing the fungal spores is added. The test plates are incubated at 24° C. and the inhibition of growth is determined photometrically 3-4 days after application.

The subject of a further assay is Fusarium culmorum. Description: microbe, parasite or virus in culture. In kind it is cell-based. Conditions: read-out: control of Fusarium culmorum compared to untreated control. On the procedure:
Conidia of the fungus from cryogenic storage are directly mixed into nutrient broth (PDB potato dextrose broth). After placing a (DMSO) solution of test compound into a microtiter plate (96-well format), the nutrient broth containing the fungal spores is added. The test plates are incubated at 24° C. and the inhibition of growth is determined photometrically 3-4 days after application.

The subject of the next assay is Monographella nivalis. The experiment in a line: Monographella nivalis (Microdochium nivale)/liquid culture (foot rot cereals). In kind it is cell-based. The settings on record: liquid culture, PDB, 24° C., growth inhibition photometric 4-5 days after application, read-out: control of Monographella nivalis compared to untreated control. On the procedure:
as §2

The subject of assay [4] is Puccinia recondita f. sp. tritici. The experiment in a line: Puccinia recondita f. sp. tritici/wheat/leaf disc curative (brown rust). The settings on record: 200 ppm, applied 1 day after inoculation, wheat leaf segments cv. Kanzler, assessed 6-8 days after application. Type of assay: in vivo. How it is done:
as §1, with “format).” for “format) and sprayed with the formulated test compound diluted in water.”, “segments” for “disks”, “fungus. Plates are stored in darkness at 19° C. and 75% rh. The formulated test compound diluted in water is applied” for “fungus”, “inoculation.” for “application.”, “The” for “The inoculated”, “(6-8” for “(7-9”

A further assay relates to Gibberella zeae. In kind it is in vivo, Gibberella zeae (Fusarium graminearum). The settings on record: 200 ppm; preventative; wheat spikelets cv. Monsun; inoculated one day after application; assessed 6-8 days after application.

With `Cc1c([C@H]2CN(C(=O)c3nnn(-c4ccc(F)cc4F)n3)[C@@H](C)c3ccccc32)cnn1C` (racemic) [Compound P-42, [2-(2,4-difluorophenyl)tetrazol-5-yl]-[rac-(1S,4S)-4-(1,5-dimethylpyrazol-4-yl)-1-methyl-3,4-dihydro-1H-isoquinolin-2-yl]methanone], the “control of Phaeosphaeria nodorum compared to untreated control” value with Phaeosphaeria nodorum is “at least 80%”. Also, the “control of Pyrenophora teres compared to untreated control” value in the assay on Pyrenophora teres is listed as “at least 80%”. Moreover, the “control of Blumeria graminis f. sp. tritici compared to untreated control” value in assay [1] is on record as “at least 80%”. For the same compound, the inhibition of growth at 20 ppm (with Glomerella lagenarium; in [3]; in the assay with Mycosphaerella arachidis; with Sclerotinia sclerotiorum; with Botryotinia fuckeliana; in the assay on Fusarium culmorum) was ≥ 80% each time. Besides, the inhibition of growth at 20 ppm in the assay with Monographella nivalis was ≥ 80%. The “control of Puccinia recondita f. sp. tritici compared to untreated control” value in [2] and in [4] was “at least 80%” throughout. Further, the “control of Alternaria solani compared to untreated control” value in the assay on Alternaria solani is “at least 80%”.

As for `C[C@H]1c2ccccc2[C@@H](c2cnn(C)c2Cl)CN1C(=O)c1cn(-c2ccc(F)cc2F)nn1` [Compound P-48, [(1S,4S)-4-(5-chloro-1-methyl-pyrazol-4-yl)-1-methyl-3,4-dihydro-1H-isoquinolin-2-yl]-[1-(2,4-difluorophenyl)triazol-4-yl]methanone], the “control of Phaeosphaeria nodorum compared to untreated control” value in the assay with Phaeosphaeria nodorum is “at least 80%”. Further, the “control of Pyrenophora teres compared to untreated control” value in the assay on Pyrenophora teres is listed as “at least 80%”. In addition, the “control of Blumeria graminis f. sp. tritici compared to untreated control” value in assay [1] is reported as “at least 80%”. Further, the inhibition of growth at 20 ppm (in the assay with Glomerella lagenarium; in [3]; in the assay with Mycosphaerella arachidis; in the assay with Sclerotinia sclerotiorum; with Botryotinia fuckeliana; with Fusarium culmorum) was ≥ 80% each time. Also, in the assay with Monographella nivalis, the inhibition of growth at 20 ppm was ≥ 80%. In addition, the “control of Alternaria solani compared to untreated control” value with Alternaria solani is “at least 80%”.

`C[C@H]1c2ccccc2[C@@H](c2cnn(C)c2Cl)CN1C(=O)c1cn(-c2ncc(F)cc2F)nn1` [Compound P-54, [(1S,4S)-4-(5-chloro-1-methyl-pyrazol-4-yl)-1-methyl-3,4-dihydro-1H-isoquinolin-2-yl]-[1-(3,5-difluoro-2-pyridyl)triazol-4-yl]methanone]: in the assay with Phaeosphaeria nodorum, the “control of Phaeosphaeria nodorum compared to untreated control” value is given as “at least 80%”. Also, in the assay on Gibberella zeae, the “control of Gibberella zeae compared to untreated control” value is “at least 80%”. The “control of Pyrenophora teres compared to untreated control” value in the assay on Pyrenophora teres is listed as “at least 80%”. Besides, the “control of Blumeria graminis f. sp. tritici compared to untreated control” value in [1] is recorded as “at least 80%”. In addition, the inhibition of growth at 20 ppm (in the assay on Glomerella lagenarium; in [3]; with Mycosphaerella arachidis; with Botryotinia fuckeliana; in the assay with Fusarium culmorum; in the assay with Monographella nivalis) was ≥ 80% each time. Besides, the “control of Alternaria solani compared to untreated control” value in the assay on Alternaria solani is on record as “at least 80%”.
